Data published in PubChem BioAssay AID2060899 (Molecular Pharmacology Branch, DTP, NCI, 2025).
Blank lines part the entries; values can stand above or below the molecule they belong to.

System: 565726-208-R1-J5-PDC complex spheroids, growth inhibition
Test: Anticancer human tumor 565726-208-R1-J5-PDC patient-derived pancreatic adenocarcinoma cell line growth inhibition [RAS]
Conditions: for IC50: curve of first compound; for viability, T/C: stronger effect = lower value
Excerpt: RAS pathway inhibitors in Combinations in Complex Spheroids
A high-throughput screen of multi-cell type tumor spheroids was designed to identify active combinations of RAS pathway inhibitors and targeted small molecules. Complex spheroids include a stromal component modeled by human endothelial cells (HUVEC) and fibroblasts modeled by human mesenchymal stem cells (MSCs). The concentration ranges selected for each drug and investigational agent were based upon clinically achievable concentrations if the clinical Cmax of the agent was known.
Compounds. The drugs and investigational agents: abemaciclib (NSC768073), cobimetinib (NSC768068), divarasib (GDC6063, NSC841802), docetaxel (NSC628503), GDC-1971 (RLY-1971, NSC841576), gemcitabine (NSC613327), inavolisib (NSC800729), ipatasertib (NSC767898), KB-0742 (NSC834161), MRTX-1133 (NSC836407), osimertinib (NSC779217), RMC-4630 (NSC839698), RMC-6236 (NSC851965), RMC-6291 (NSC852671), Ro-3306 (NSC812927), sapanisertib (NSC764658), SN-38 (NSC673596), staurosporine (NSC755774), SY5609 (NSC837396), and tovorafenib (DAY101, NSC766906), were obtained from the National Cancer Institute (NCI) Developmental Therapeutics Program Chemical Repository. The FDA-approved anticancer drug set is available from the NCI Developmental Therapeutics Program. […] The stock solutions were prepared in dimethyl sulfoxide (DMSO, Sigma-Aldrich, St. Louis, MO, cat. D2650) at 800-fold the tested concentration and stored at -70 degrees C prior to their use. All drugs and investigational agents were tested over a range starting from a high concentration at or near the clinical Cmax and decreasing in half-log increments. If the clinical Cmax for an agent had not been determined, the highest concentration tested was 10 microM.
Cell Culture. All cells were maintained in an incubator at 37 degrees C and 5% CO2 with 95% humidity. The PDC lines were cultured according to standard operating procedures established by the NCI PDMR. All PDCs were thawed and cultured in Matrigel-coated flasks prepared with a working solution of 1X Ham's F-12 nutrient mix, without supplementation (Invitrogen, Waltham, MA, cat. 11765054), 100 U/mL penicillin-streptomycin (Invitrogen, cat. 15140122), and 2.5% Matrigel (Corning Inc., Corning, NY, cat. 354248) for the first three passages. The 362531-283-R-J2-PDC and 782815-120-R-J1-PDC lines were cultured in 6C/Colon 1B media, which includes advanced DMEM/F-12 (Thermo Fisher Scientific, cat. 12634028), 10 mM HEPES (Thermo Fisher Scientific, cat. 15630080), 1X GlutaMAX supplement (Thermo Fisher Scientific, cat. 35050061), 0.1 mg/mL primocin (InvivoGen, San Diego, CA, cat. ant-pm-2), 10% defined fetal bovine serum, heat inactivated (HyClone Laboratories Inc., Logan, UT, cat. SH30070.03HI), 50% L-WRN conditioned media (ATCC, cat. CRL-3276), 1.25 mM N-Acetyl-L-cysteine (Sigma-Aldrich, cat. A9165), 10 mM nicotinamide (Sigma-Aldrich, cat. N0636), 1X B-27 supplement (Thermo Fisher Scientific, cat. 17504044), 1X N-2 supplement (Thermo Fisher Scientific, cat. 17502048), 50 ng/mL human EGF (Thermo Fisher Scientific, cat. PHG0311), and 10 microM Y-27632 dihydrochloride (Tocris Bioscience, cat. 1254). The K12877-001-R-J1-PDC line was cultured in 6I media, which includes all 6C/Colon 1B media plus 10 ng/mL human FGF-10 (PeproTech, cat. 100-26), 1 ng/mL human FGF-2 (PeproTech, cat. 100-18B), 1 µM prostaglandin E2 (Tocris Bioscience, cat. 2296), […] hydrocortisone (Sigma-Aldrich, cat. H4001), and […] bovine insulin (Sigma-Aldrich, cat. I6634). The K86415-001-R-J1-PDC line was cultured in 6D media, which includes all 6C/Colon 1B media components minus the L-WRN conditioned media. The 485176-168-R4-J1-PDC was cultured in PANC media, which includes all 6C/Colon 1B media plus 100 ng/mL human FGF-10 (PeproTech, cat. 100-26), 500 nM SB-431542 (Selleckchem, cat. S1067), and 10 nM gastrin (Tocris Bioscience, cat. 3006). […]

[1] = second compound 0.0316 µM, first compound 0.0316 µM
[2] = second compound 0.0316 µM, first compound 0.1 µM
[3] = second compound 0.1 µM, first compound 0.0316 µM
[4] = second compound 0.1 µM, first compound 0.1 µM
[5] = second compound 0.316 µM, first compound 0.0316 µM
[6] = second compound 0.316 µM, first compound 0.1 µM
[7] = second compound 1 µM, first compound 0.0316 µM
[8] = second compound 1 µM, first compound 0.1 µM
[9] = second compound 3.16 µM, first compound 0.0316 µM
[10] = second compound 3.16 µM, first compound 0.1 µM
[11] = second compound 10 µM, first compound 0.0316 µM
[12] = second compound 10 µM, first compound 0.1 µM
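Also: spheroids exposed to compounds for seven days before readout.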
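For viability, T/C in this document: 100% = DMSO vehicle control viability.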

- IC50 (second compound 0.0316 µM): > 100 nM
- IC50 (second compound 0.1 µM): > 100 nM
- IC50 (second compound 0.316 µM): > 100 nM
- IC50 (second compound 1 µM): 14.4 nM
- IC50 (second compound 3.16 µM): 5.06 nM
- IC50 (second compound 10 µM): 4.63 nM
SMILES: CC(C)n1nc(-c2ccc3oc(N)nc3c2)c2c(N)ncnc21 + C#Cc1c(F)ccc2cc(O)cc(-c3ncc4c(N5CC6CCC(C5)N6)nc(OCC56CCCN5CC(F)C6)nc4c3F)c12
- viability, T/C (second compound 0.0316 µM, first compound 0.000316 µM): 108%
- viability, T/C (second compound 0.0316 µM, first compound 0.001 µM): 156%
- viability, T/C (second compound 0.0316 µM, first compound 0.00316 µM): 87.2%
- viability, T/C (second compound 0.0316 µM, first compound 0.01 µM): 68.4%
- viability, T/C [1]: 63.7%
- viability, T/C [2]: 49.2%
- viability, T/C (second compound 0.1 µM, first compound 0.000316 µM): 123%
- viability, T/C (second compound 0.1 µM, first compound 0.001 µM): 135%
- viability, T/C (second compound 0.1 µM, first compound 0.00316 µM): 73.8%
- viability, T/C (second compound 0.1 µM, first compound 0.01 µM): 72.5%
- viability, T/C [3]: 59.7%
- viability, T/C [4]: 51%
- viability, T/C (second compound 0.316 µM, first compound 0.000316 µM): 123%
- viability, T/C (second compound 0.316 µM, first compound 0.001 µM): 149%
- viability, T/C (second compound 0.316 µM, first compound 0.00316 µM): 83.5%
- viability, T/C (second compound 0.316 µM, first compound 0.01 µM): 59.8%
- viability, T/C [5]: 50.6%
- viability, T/C [6]: 42.8%
- viability, T/C (second compound 1 µM, first compound 0.000316 µM): 126%
- viability, T/C (second compound 1 µM, first compound 0.001 µM): 115%
- viability, T/C (second compound 1 µM, first compound 0.00316 µM): 68.3%
- viability, T/C (second compound 1 µM, first compound 0.01 µM): 62.4%
- viability, T/C [7]: 41.7%
- viability, T/C [8]: 40%
- viability, T/C (second compound 3.16 µM, first compound 0.000316 µM): 111%
- viability, T/C (second compound 3.16 µM, first compound 0.001 µM): 107%
- viability, T/C (second compound 3.16 µM, first compound 0.00316 µM): 56.5%
- viability, T/C (second compound 3.16 µM, first compound 0.01 µM): 47.7%
- viability, T/C [9]: 32.9%
- viability, T/C [10]: 30.6%
- viability, T/C (second compound 10 µM, first compound 0.000316 µM): 96.9%
- viability, T/C (second compound 10 µM, first compound 0.001 µM): 80.5%
- viability, T/C (second compound 10 µM, first compound 0.00316 µM): 56.4%
- viability, T/C (second compound 10 µM, first compound 0.01 µM): 36%
- viability, T/C [11]: 25.6%
- viability, T/C [12]: 18.4%

- IC50 (second compound 0.0316 µM): > 10000 nM
- IC50 (second compound 0.1 µM): > 10000 nM
- IC50 (second compound 0.316 µM): > 10000 nM
- IC50 (second compound 1 µM): > 10000 nM
- IC50 (second compound 3.16 µM): > 10000 nM
- IC50 (second compound 10 µM): > 10000 nM
SMILES: C[C@@H](NC(=O)c1ncnc(N)c1Cl)c1ncc(C(=O)Nc2cc(C(F)(F)F)c(Cl)cn2)s1 + C#Cc1c(F)ccc2cc(O)cc(-c3ncc4c(N5CC6CCC(C5)N6)nc(OCC56CCCN5CC(F)C6)nc4c3F)c12
- viability, T/C [1]: 114%
- viability, T/C [2]: 167%
- viability, T/C (second compound 0.0316 µM, first compound 0.316 µM): 121%
- viability, T/C (second compound 0.0316 µM, first compound 1 µM): 102%
- viability, T/C (second compound 0.0316 µM, first compound 3.16 µM): 135%
- viability, T/C (second compound 0.0316 µM, first compound 10 µM): 129%
- viability, T/C [3]: 122%
- viability, T/C [4]: 166%
- viability, T/C (second compound 0.1 µM, first compound 0.316 µM): 107%
- viability, T/C (second compound 0.1 µM, first compound 1 µM): 108%
- viability, T/C (second compound 0.1 µM, first compound 3.16 µM): 116%
- viability, T/C (second compound 0.1 µM, first compound 10 µM): 127%
- viability, T/C [5]: 150%
- viability, T/C [6]: 147%
- viability, T/C (second compound 0.316 µM, first compound 0.316 µM): 94.9%
- viability, T/C (second compound 0.316 µM, first compound 1 µM): 110%
- viability, T/C (second compound 0.316 µM, first compound 3.16 µM): 95.8%
- viability, T/C (second compound 0.316 µM, first compound 10 µM): 112%
- viability, T/C [7]: 134%
- viability, T/C [8]: 135%
- viability, T/C (second compound 1 µM, first compound 0.316 µM): 92.8%
- viability, T/C (second compound 1 µM, first compound 1 µM): 89.6%
- viability, T/C (second compound 1 µM, first compound 3.16 µM): 107%
- viability, T/C (second compound 1 µM, first compound 10 µM): 105%
- viability, T/C [9]: 110%
- viability, T/C [10]: 123%
- viability, T/C (second compound 3.16 µM, first compound 0.316 µM): 72.8%
- viability, T/C (second compound 3.16 µM, first compound 1 µM): 68.3%
- viability, T/C (second compound 3.16 µM, first compound 3.16 µM): 65.4%
- viability, T/C (second compound 3.16 µM, first compound 10 µM): 102%
- viability, T/C [11]: 100%
- viability, T/C [12]: 102%
- viability, T/C (second compound 10 µM, first compound 0.316 µM): 68.4%
- viability, T/C (second compound 10 µM, first compound 1 µM): 64.8%
- viability, T/C (second compound 10 µM, first compound 3.16 µM): 72.2%
- viability, T/C (second compound 10 µM, first compound 10 µM): 72.8%
